This is an account of results in ChEMBL document CHEMBL3596143, “Identification of tanshinone IIA as a natural monoacylglycerol lipase inhibitor by combined in silico and in vitro approach” (Medchemcomm, 2014).

The target of experiment [1] is T1, Monoglyceride lipase (Homo sapiens) (UniProt Q99685).
T1 sequence (whole entry): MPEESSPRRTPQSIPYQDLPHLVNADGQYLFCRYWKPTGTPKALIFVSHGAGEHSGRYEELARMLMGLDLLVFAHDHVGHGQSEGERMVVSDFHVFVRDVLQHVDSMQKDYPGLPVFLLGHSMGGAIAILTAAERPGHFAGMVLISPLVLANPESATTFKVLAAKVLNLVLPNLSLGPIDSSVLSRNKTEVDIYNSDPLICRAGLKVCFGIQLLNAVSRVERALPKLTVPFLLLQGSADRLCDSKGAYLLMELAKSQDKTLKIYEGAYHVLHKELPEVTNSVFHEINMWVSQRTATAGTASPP
Kind of experiment: Inhibition of MAGL (unknown origin) at […] after 10 mins relative to control.

For experiment [2], the target named is T1, Monoglyceride lipase (Homo sapiens). As to the kind of experiment: Inhibition of MAGL (unknown origin) at 250 uM after 10 mins relative to control.
For experiment [3] the target is unchanged. As to the kind of experiment: Inhibition of MAGL (unknown origin) at 500 uM after 10 mins relative to control.
Experiment [4] shares this target. Kind of experiment: Inhibition of MAGL (unknown origin) at 125 uM after 10 mins relative to control.
The target is the same in experiment [5]. Kind of experiment: (§1) Inhibition of MAGL (unknown origin) after 10 mins.
The target of experiment [6] is T2, Monoglyceride lipase (Homo sapiens, UniProt Q99685).
T2 sequence (Q99685 whole entry): T1 sequence (whole entry)
The experiment is described as §1.

In experiment [7] the target is T1, Monoglyceride lipase (Homo sapiens). Conditions: 2 mM.
Description: Inhibition of MAGL (unknown origin) at 2 mM after 10 mins relative to control

On to `CC1(C)CC[C@]2(C(=O)O)CC[C@]3(C)C(=CC[C@@H]4[C@@]5(C)CC[C@H](O)C(C)(C)[C@@H]5CC[C@]43C)[C@@H]2C1`, for which the inhibition in experiment [1] was 1%.
`Cc1coc2c1C(=O)C(=O)c1c-2ccc2c1CCCC2(C)C` [TANSHINONE IIA]: the inhibition in experiment [2] was 79%; in experiment [1], 95%; in experiment [3], 85%; in experiment [4], 72%; in experiment [5], “Dose-dependent effect”. The same compound registered a concentration for half-maximal inhibition (IC50) in experiment [6] of 48 µM.
In the case of `CC1(C)OC(=O)C=C[C@]2(C)[C@H]3CC[C@@]4(C)[C@H](c5ccoc5)OC(=O)[C@H]5O[C@]54[C@]3(C)C(=O)C[C@@H]12`, the inhibition in experiment [1] came out at 4%.
On the same count and under the same terms, next, `O=c1c(-c2ccc(O)cc2)coc2c([C@@H]3O[C@H](CO)[C@@H](O)[C@H](O)[C@H]3O)c(O)ccc12`: 52%.
`O=C(Oc1ccc([N+](=O)[O-])cc1)N1CCC(C(O)(c2ccc3c(c2)OCO3)c2ccc3c(c2)OCO3)CC1`: the inhibition in experiment [7] turned out to be 94%.
`Cc1coc2c1C(=O)C(=O)c1c-2ccc2c(C)cccc12`: the inhibition stood at 15% in experiment [2], 58% in experiment [1], 31% in experiment [3] and 12% in experiment [4].
